The values below come from patent US12268683B2, “Compounds and methods for synergistic activation of M channels” (THE REGENTS OF THE UNIVERSITY OF CALIFORNIA, priority 2018, dated 2025).

One data set has as its target KCNA1 (Homo sapiens, UniProt Q09470). The data set is described as follows: TEVC of KCNA1 expressed in Xenopus oocytes. Type of data set: cell-based. From the text:
cRNA transcripts encoding human KCNA1, KCNQ1, KCNQ2, KCNQ3, KCNQ4, or KCNQ5 were generated by in vitro transcription using the T7 polymerase message machine kit (Thermo Fisher Scientific), after vector linearization, from cDNA sub-cloned into plasmids incorporating X. laevis β-globin 5′ and 3′ UTRs flanking the coding region to enhance translation and cRNA stability. cRNA was quantified by spectrophotometry. Mutant cDNAs were generated by site-directed mutagenesis using a QuikChange kit according to manufacturer's protocol (Stratagene, San Diego, Calif.) and corresponding cRNAs prepared as above. Defolliculated stage V and VI X. laevis oocytes (Ecocyte Bioscience, Austin, Tex.) were injected with Kv channel a subunit cRNAs (10 ng total per oocyte). […]
TEVC recording was performed at room temperature with an OC-725C amplifier (Warner Instruments, Hamden, Conn.) and pClamp10.2 software (Molecular Devices, Sunnyvale, Calif.) 3-5 days after cRNA injection as described in the section above. […] Currents were recorded in response to pulses between −80 and +40 mV at 20 mV intervals, or a single pulse to +40 mV, from a holding potential of −80 mV, to yield current-voltage relationships, current magnitude, and for quantifying activation rate. […]

The subject of data set [1] is pentylene tetrazole-induced seizures. The data set is described as follows: PTZ chemoconvulsant assay. It counts as in vivo, mouse. The following applies: for clonic seizure incidence: alone. From the text:
We compared anticonvulsant activities of test compounds in male C57BL/6 mice (Charles River) aged 2-3 months. Mice were housed and used according to the recommendations in the Guide for the Care and Use of Laboratory Animals of the National Institutes of Health (NIH Publication, 8th edition, 2011). The study protocol was approved by the Institutional Animal Care and Use Committee of University of California, Irvine, which confirmed that all relevant ethical regulations were adhered to. Chemicals were sourced from Sigma (St. Louis, Mo., USA). A pentylene tetrazole (PTZ) chemoconvulsant assay was used-. […] Following the PTZ injection, mice were caged individually and an observer (GWA) blinded to the drug used recorded, over 20 min, clonic and tonic seizure incidence, and seizure-related mortality.
We quantified the anticonvulsant activities of (E)-2-dodecenal and tridecanal in male C57BL/6 mice (Charles River, Wilmington, Mass.) aged 2-3 months. The mice were housed and used according to the recommendations in the Guide for the Care and Use of Laboratory Animals of the National Institutes of Health (NIH Publication, 8th edition, 2011). The study protocol was approved by the Institutional Animal Care and Use Committee of University of California, Irvine. The chemicals were sourced from Sigma (St. Louis, Mo., USA). We used a pentylene tetrazole (PTZ) chemoconvulsant assay as we previously described (30). We injected the mice intraperitoneally with (E)-2-dodecenal (2 or 20 mgkg^−1) (with or without 2.5 mgkg^−1 XE991) or tridecanal (20 mgkg^−1) solubilized in PBS, or vehicle control (PBS), and then 30 minutes later we injected mice intraperitoneally with 80 mgkg-PTZ. Following the PTZ injection, the mice were caged individually and an observer (GWA) blinded to the experimental condition timed the latency to first seizure.
We compared anticonvulsant activities of 3FMSG in male C57BL/6 mice (Charles River) aged 2-3 months. Mice were housed and used according to the recommendations in the Guide for the Care and Use of Laboratory Animals of the National Institutes of Health (NIH Publication, 8th edition, 2011). The study protocol was approved by the Institutional Animal Care and Use Committee of University of California, Irvine, which confirmed that all relevant ethical regulations were adhered to. Chemicals were sourced from Sigma (St. Louis, Mo., USA). We used a pentylene tetrazole (PTZ) chemoconvulsant assay as we previously described^27. Mice were injected intraperitoneally with 3FMSG (5 mg kg^−1) or vehicle control (PBS) and then 30 minutes later injected intraperitoneally with 80 mg kg^−1 PTZ. Following the PTZ injection, mice were caged individually and an observer (GWA) blinded to the drug used recorded seizure activity over 20 minutes.

For data set [2] the following is noted: humans; cited from earlier work.

Sequence of KCNA1 (Q09470 whole entry): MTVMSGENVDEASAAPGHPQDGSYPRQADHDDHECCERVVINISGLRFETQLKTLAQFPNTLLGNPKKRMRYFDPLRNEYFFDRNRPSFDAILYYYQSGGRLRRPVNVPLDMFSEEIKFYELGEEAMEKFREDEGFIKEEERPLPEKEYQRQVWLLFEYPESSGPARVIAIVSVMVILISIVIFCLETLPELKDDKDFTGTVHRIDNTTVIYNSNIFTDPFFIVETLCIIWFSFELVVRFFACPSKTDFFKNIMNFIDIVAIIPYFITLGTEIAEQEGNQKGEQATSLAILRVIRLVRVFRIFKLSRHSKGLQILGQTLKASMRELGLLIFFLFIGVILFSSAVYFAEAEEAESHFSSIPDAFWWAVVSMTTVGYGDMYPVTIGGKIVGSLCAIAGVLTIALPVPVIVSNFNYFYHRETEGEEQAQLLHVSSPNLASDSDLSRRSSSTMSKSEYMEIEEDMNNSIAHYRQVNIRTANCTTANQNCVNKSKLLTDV

Regarding `CC(C)CC(=O)O` [IVA, isovaleric acid], on KCNA1, the “effect on KCNA1 (in words)” value was “did not alter currents”. The clonic seizure incidence entry is “neither compound reduced clonic seizures alone” in data set [1] (10 mg/kg i.p.) and “no effect” in data set [1] (20 mg/kg i.p.). For the same compound, in data set [1] (individually), the “suppression of PTZ-induced tonic seizures” value is “ineffective”.
For `CC(C)CC(N)=O` [Isovaleramide, isovaleramide], in data set [2], the “mean Tmax” value is 30 to 45 min and the well tolerated dose entry was “at least 2400 mg per day”.
